Laboratory results taken from US10745400B2, “Inhibition of BMP signaling, compounds, compositions and uses thereof” (Vanderbilt University, priority 2018, dated 2020).
Numbering of substitutions follows the chain as printed.

How the values were obtained:
ALK1/ACVRL1 = ALK1/ACVRL1 (Homo sapiens, UniProt P37023); test: Kinase assay (33P-ATP filter-binding), ALK1; type: biochemical; conditions: read-out: Kinase Selectivity ALK1/ACVRL1
Summary of the method: (§1)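 Kinase mixed into substrate in Hepes (pH 7.5)/MgCl2/EGTA/DTT buffer, 1% DMSO. Cpd acoustically dispensed, 20 min RT preinc. Start w/ 33P-ATP, 2 h RT, P81 spot, filter-binding.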

ALK2/ACVR1 = biological target: T1, ALK2/ACVR1 (Homo sapiens, UniProt Q04771); test: Kinase assay (33P-ATP filter-binding), ALK2; type: biochemical; conditions: 20 mM; read-out: Kinase Selectivity ALK2/ACVR1 (20 mM)
T1 sequence (Q04771 21-509): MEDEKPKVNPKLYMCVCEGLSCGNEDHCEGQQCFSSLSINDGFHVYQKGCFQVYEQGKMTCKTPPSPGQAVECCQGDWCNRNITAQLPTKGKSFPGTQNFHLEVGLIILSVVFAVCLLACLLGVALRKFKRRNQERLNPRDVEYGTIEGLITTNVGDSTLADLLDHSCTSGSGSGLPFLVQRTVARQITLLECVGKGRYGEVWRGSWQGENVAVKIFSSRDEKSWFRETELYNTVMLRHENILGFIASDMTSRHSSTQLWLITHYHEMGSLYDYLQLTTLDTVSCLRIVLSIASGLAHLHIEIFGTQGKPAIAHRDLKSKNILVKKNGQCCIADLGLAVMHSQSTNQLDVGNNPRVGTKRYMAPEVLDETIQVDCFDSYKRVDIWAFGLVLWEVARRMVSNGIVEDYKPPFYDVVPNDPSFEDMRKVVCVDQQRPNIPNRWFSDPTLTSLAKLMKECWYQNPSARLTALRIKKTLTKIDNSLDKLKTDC
Protocol: (§2) The kinase assays were carried out briefly as follows. Substrate was prepared in Base Reaction Buffer (20 mM Hepes (pH 7.5), 10 mM MgCl2, 1 mM EGTA, 0.02% Brij35, 0.02 mg/ml BSA, 0.1 mM Na3VO4, 2 mM DTT, 1% DMSO). The indicated kinases was delivered into the substrate solution and allowed to gently mix. Next, the specific compound was delivered in DMSO into the kinase mixture by Acoustic technology (Echo550; nanoliter range), and allowed to incubate for 20 minutes at room temperature. Next, ^33P-ATP was delivered into the reaction mixture to initiate the reaction and allowed to incubate at room temperature. After 2 hours, the reactions were spotted onto P81 ion exchange paper and the kinase activity is detected by the filter-binding method.

ALK2 (Q207D) = biological target: T2, ALK2 (Q207D) (Homo sapiens, UniProt Q04771, Q207D); test: Kinase assay (33P-ATP filter-binding), ALK2 Q207D; type: biochemical; conditions: Q207D mutant, 20 mM; read-out: Kinase Selectivity ALK2 (Q207D, 20 mM)
T2 sequence (Q04771 21-509 Q207D): T1 sequence (Q04771 21-509) with Q187D
Protocol: as §2

ALK2 (R206H) = biological target: T3, ALK2 (R206H) (Homo sapiens, UniProt Q04771, R206H); test: Kinase assay (33P-ATP filter-binding), ALK2 R206H; type: biochemical; conditions: R206H mutant, 20 mM; read-out: Kinase Selectivity ALK2 (R206H, 20 mM)
T3 sequence (Q04771 21-509 R206H): T1 sequence (Q04771 21-509) with R186H
Protocol: as §2

ALK3/BMPR1A = ALK3/BMPR1A (Homo sapiens, UniProt P36894); test: Kinase assay (33P-ATP filter-binding), ALK3; type: biochemical; conditions: 1 mM; read-out: Kinase Selectivity ALK3/BMPR1A (1 mM)
Chain of ALK3/BMPR1A (P36894 24-532): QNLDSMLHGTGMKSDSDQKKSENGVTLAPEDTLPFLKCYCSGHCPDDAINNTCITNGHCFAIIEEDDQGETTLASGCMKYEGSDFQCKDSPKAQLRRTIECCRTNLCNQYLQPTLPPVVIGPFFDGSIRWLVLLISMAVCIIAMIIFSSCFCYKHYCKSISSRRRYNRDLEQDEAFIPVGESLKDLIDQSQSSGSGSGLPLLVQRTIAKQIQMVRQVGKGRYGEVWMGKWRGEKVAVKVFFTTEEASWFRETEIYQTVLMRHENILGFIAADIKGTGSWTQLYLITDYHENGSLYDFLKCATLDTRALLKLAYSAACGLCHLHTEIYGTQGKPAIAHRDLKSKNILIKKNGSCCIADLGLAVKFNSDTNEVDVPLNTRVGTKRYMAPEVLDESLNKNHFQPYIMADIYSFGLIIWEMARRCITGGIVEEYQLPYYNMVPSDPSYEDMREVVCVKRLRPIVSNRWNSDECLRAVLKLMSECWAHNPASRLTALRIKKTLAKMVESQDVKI
Summary of the method: as §1

[1] = system: BMP-responsive C2C12 mouse myoblast cells stimulated with BMP4; test: BMP4 cell assay (Id1 promoter-firefly luciferase reporter); type: cell-based; conditions: Mus musculus; C2C12 cells, BMP4 50 ng/mL, overnight
Protocol: The BMP4 cell assay were carried out briefly as follows. Stably transfected BMP-responsive C2C12 mouse myoblast cells (containing the Idl promoter-firefly luciferase reporter) were seeded in 96-well plates and incubated overnight with the compounds and BMP4 (50 ng/mL). The cells were then lysed, and cell extracts were then subjected to the firefly luciferase assay using Steady-Glo luciferase assay kit (Promega). The results were normalized to cell titers, as measured using Cell Titer-Glo luminescence assay (Promega). […] Relative activity was quantified by the ratio of firefly to Renilla luciferase activities using the dual luciferase assay kit (Promega).

caALK2 = biological target: T4, caALK2 (Homo sapiens, UniProt Q04771, Q207D); test: Subtype analysis, C2C12BRA cells transfected with constitutively active caALK2; type: cell-based; conditions: Primary In Vitro Data, constitutively active ALK2
T4 construct: expressed in transfected cells; host or cells: C2C12BRA cells (mouse myoblast, BMP-responsive reporter)
T4 sequence (Q04771 21-509 Q207D): T1 sequence (Q04771 21-509) with Q187D
Protocol: The BMP4 cell assay were carried out briefly as follows. Stably transfected BMP-responsive C2C12 mouse myoblast cells (containing the Idl promoter-firefly luciferase reporter) were seeded in 96-well plates and incubated overnight with the compounds and BMP4 (50 ng/mL). The cells were then lysed, and cell extracts were then subjected to the firefly luciferase assay using Steady-Glo luciferase assay kit (Promega). The results were normalized to cell titers, as measured using Cell Titer-Glo luminescence assay (Promega). For subtype analysis, C2C12BRA cells were transiently transfected with plasmids (0.1 μg) expressing constitutively active forms of the BMP type I receptors (caALK2, caALK3 or caALK6) using Lipofectamine kit (Invitrogen) in 96 well plates; 0.1 μg of pRL-TK Renilla luciferase (Promega) was used to control for transfection efficiency. Relative activity was quantified by the ratio of firefly to Renilla luciferase activities using the dual luciferase assay kit (Promega).

caALK1 = caALK1 (Homo sapiens, UniProt P37023); test: Subtype analysis, constitutively active caALK1; type: cell-based; conditions: Primary In Vitro Data, constitutively active ALK1
Chain of caALK1 (P37023 whole entry Q201D, form open): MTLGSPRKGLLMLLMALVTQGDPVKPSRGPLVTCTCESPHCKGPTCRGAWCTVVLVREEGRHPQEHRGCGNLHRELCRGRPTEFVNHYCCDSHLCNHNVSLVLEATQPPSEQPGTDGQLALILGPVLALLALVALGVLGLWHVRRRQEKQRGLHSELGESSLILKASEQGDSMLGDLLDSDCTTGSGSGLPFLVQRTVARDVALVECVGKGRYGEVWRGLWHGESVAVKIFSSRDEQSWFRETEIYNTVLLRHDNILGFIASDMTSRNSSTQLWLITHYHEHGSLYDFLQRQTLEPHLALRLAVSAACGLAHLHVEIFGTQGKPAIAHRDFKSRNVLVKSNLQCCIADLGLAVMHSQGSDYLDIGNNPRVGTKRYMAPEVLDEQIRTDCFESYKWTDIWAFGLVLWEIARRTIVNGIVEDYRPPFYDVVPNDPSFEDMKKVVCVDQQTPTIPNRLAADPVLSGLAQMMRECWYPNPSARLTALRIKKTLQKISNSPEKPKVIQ

Chain of ALK1/ACVRL1 (P37023 22-503): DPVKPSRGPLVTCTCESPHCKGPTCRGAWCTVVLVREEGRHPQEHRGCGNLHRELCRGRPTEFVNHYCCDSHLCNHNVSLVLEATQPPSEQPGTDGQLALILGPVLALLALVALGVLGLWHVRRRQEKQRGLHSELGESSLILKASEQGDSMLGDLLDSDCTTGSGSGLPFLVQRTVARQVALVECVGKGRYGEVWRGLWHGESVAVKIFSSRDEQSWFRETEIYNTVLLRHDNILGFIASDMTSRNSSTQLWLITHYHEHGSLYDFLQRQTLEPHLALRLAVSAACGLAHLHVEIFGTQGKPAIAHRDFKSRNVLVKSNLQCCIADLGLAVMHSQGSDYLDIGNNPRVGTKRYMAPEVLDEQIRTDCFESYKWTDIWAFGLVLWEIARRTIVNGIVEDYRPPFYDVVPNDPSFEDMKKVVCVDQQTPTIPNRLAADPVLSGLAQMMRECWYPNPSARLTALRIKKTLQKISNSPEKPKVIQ

IC50 (ALK1/ACVRL1) [nM]	IC50 (ALK2/ACVR1) [nM]	IC50 (ALK2 (Q207D)) [nM]	IC50 (ALK2 (R206H)) [nM]	IC50 (ALK3/BMPR1A) [nM]	IC50 [1] [nM]	IC50 (caALK2) [nM]	IC50 (caALK1) [nM]	SMILES
767	84.9	77.6	88.2	17.4	112	16	178	CN1CCN(c2ccc(-c3ccn4c(-c5ccnc6ncccc56)cnc4c3)cc2)CC1 [Compound 29]
1200	114	79.1	105	< 5.08	66	44	189	Cc1cc(-c2cnc3cc(-c4ccc(N5CCN(C)CC5)cc4)ccn23)c2cccnc2n1 [Compound 28]
